Here are results for five molecules from patent US9056844B2, “4-substituted-3-benzyloxy-bicyclo[3.1.0]hexane compounds as mGluR 2/3 antagonists” (Eli Lilly and Company, priority 2010, dated 2015).

Some results are limits rather than exact numbers.

Experiment [1] has as its target T1, human mGlu6 receptor (Homo sapiens, UniProt O15303).
T1 construct: expressed in transfected cells; host or cells: AV12 cells, co-expressing rat EAAT1
Kind of experiment: mGlu6 cAMP antagonist assay (reference agonist L-AP4). It is filed as cell-based. Particulars: cAMP format. The text has this:
(§1) FLIPR and cAMP Assays for mGlu Receptor Selectivity
(§2) The relative antagonist potencies of the compounds of the invention for the other human mGlu receptors can be assessed with either a cAMP assay or fluorometric calcium response assay (see for example Fell et al., JPET (in press)). Briefly, individual AV12 cell lines containing the rat EAAT1 glutamate transporter and stably expressing the human mGlu1, 2, 3, 4, 5, 6, & 8 receptors are used for these studies. The mGlu1 and 5 receptors are […], so they naturally signal through phospholipase C, producing a calcium flux response which can be used to measure receptor activation using a Fluorometric Imaging Plate Reader (FLIPR, Molecular Devices). The cell lines expressing the mGlu2, 3, 4, and 8 receptor are designed to express the Gα15 subunit so that these Gi-coupled receptors will generate a calcium flux response similar to the mGlu1 and 5 receptor expressing cell lines. The mGlu6 receptor is tested in a cAMP format using methods analogous to those developed for mGlu2 and mGlu3 above. These cell lines are maintained as previously described except that amounts of L-glutamine and selection agents (geneticin, hygromycin B, zeocin, and blasticidin) may vary depending on the cell line. Confluent cultures are passaged biweekly.
Antagonist activity in mGlu6 cells is measured using cAMP in a method analogous to that described above for mGlu2 and mGlu3 activity, except that the reference agonist was L-AP4 (Tocris). […] Relative IC50 and EC50 values are calculated from the top-bottom range of the concentration response curve using a four-parameter logistic curve fitting program (ActivityBase v5.3.1.22).

The target in experiment [2] is T2, human mGlu4 receptor (Homo sapiens, UniProt Q14833).
T2 construct: expressed in transfected cells; host or cells: AV12 cells, co-expressing rat EAAT1 and Galpha15
T2 sequence (Q14833 33-912): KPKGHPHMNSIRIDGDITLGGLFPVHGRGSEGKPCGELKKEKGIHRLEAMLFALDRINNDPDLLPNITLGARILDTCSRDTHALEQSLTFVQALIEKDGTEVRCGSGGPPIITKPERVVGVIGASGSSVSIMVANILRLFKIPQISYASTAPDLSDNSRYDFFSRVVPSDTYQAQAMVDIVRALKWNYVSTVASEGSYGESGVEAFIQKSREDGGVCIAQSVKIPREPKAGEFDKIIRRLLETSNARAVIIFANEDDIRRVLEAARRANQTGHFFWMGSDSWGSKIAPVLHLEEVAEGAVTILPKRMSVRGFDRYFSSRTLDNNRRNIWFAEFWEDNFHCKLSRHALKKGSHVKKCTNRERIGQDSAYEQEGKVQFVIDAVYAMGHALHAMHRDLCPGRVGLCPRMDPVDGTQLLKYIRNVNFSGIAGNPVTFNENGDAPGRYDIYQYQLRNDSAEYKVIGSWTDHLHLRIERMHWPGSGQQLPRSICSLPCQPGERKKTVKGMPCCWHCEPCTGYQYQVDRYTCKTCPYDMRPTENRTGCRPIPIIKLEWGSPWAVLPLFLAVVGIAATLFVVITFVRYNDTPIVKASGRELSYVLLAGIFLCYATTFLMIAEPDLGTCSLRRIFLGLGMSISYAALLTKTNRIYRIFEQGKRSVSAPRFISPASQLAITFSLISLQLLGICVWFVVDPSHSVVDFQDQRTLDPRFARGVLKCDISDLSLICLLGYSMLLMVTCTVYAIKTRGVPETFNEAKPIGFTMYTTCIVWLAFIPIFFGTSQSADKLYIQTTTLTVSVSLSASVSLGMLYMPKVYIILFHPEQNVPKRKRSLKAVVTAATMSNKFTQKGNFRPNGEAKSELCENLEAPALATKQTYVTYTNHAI
In words: FLIPR calcium assay for mGlu receptor selectivity, mGlu4 antagonist mode. It counts as cell-based. As to conditions: inhibition of EC90 glutamate response, read-out: mGlu4 % inhib. @12.5 μM.
Excerpt: as §1, §2
(§3) Intracellular calcium levels are monitored using FLIPR before and after the addition of test compounds and Fluo-3 AM (Invitrogen) or Calcium 4 (Molecular Devices) dye, depending on the cell line. Cells are plated 24 hours prior to assay in a variable concentration of glutamine and a variable density of cells per well, depending on the cell line. The medium is removed and the cells are incubated with 8 μM of dye (50 μl per well) for 90 or 120 minutes (depending on cell line) at 25° C. A single-addition FLIPR assay generating an 11-point concentration response curve for the agonist glutamate is conducted prior to each experiment to confirm the appropriate sensitivity of the cells. The results are analyzed using GraphPad Prism v4.03 to calculate the concentrations of glutamate needed to induce the EC90 (antagonist assay) and EC10 (potentiator assay) responses.
(§4) Compounds are tested at each mGlu receptor in a two-addition FLIPR assay using a 10-point concentration response profile starting at a final concentration of 25 μM for the agonist assay and 12.5 μM for the potentiator and antagonist assays. The first addition detects any agonist activity, and the second addition consists of 100 μl of select concentrations (depending on cell line) of glutamate in assay buffer generating an EC10 or EC90 glutamate response. Agonist effects are quantified as percent stimulation induced by compound alone relative to the maximal glutamate response. Antagonist effects are quantified by calculating the percent inhibition of the EC90 glutamate response caused by the compound. Potentiation effects are quantified as percent increase in the presence of an EC10 response in glutamate relative to the ECmax response. All data are calculated as relative IC50 or EC50 values using a four-parameter logistic curve fitting program (ActivityBase v5.3.1.22).

Experiment [3] has as its system male NIH-Swiss mice. In words: Forced-swim test in mice (mFST). It is filed as in vivo, mouse. As to conditions: for ED60: Mus musculus, ip, immobility in last 4 min of 6 min; for Maximal Decrease (1 − compound/control) * 100%: i.p., immobility time. The source says:
Forced-Swim Test in Mice (mFST)
mFST is an established in vivo assay for antidepressant activity (Li et al. J Pharmacol Exp Ther. 319(1):254-9, 2006.). […] The mFST was used to evaluate potential antidepressant-like activity of novel mGlu2/3 antagonists essentially as described in previously published methods (see for example, Li et al. J Pharmacol Exp Ther. 319(1):254-9, 2006.). Briefly, male NIH-Swiss mice (Harlan Sprague-Dawley, Indianapolis, Ind.) weighing between 25-30 g are used. Group housed animals are removed from the vivarium to the testing area in their own cages and allowed to adapt to the new environment for at least 1 hour before testing. Compounds where R^1 and R^2 are both hydrogen are dissolved in water with minimal NaOH added for dissolution and are administered i.p. Compounds where R^1 and/or R^2 are other than hydrogen are prepared on the day of use in 2.0-2.5% N-methyl-pyrrolidinone and then suspended in 1% HEC, 0.25% Tween 80, and 0.05% Dow antifoam, and administered orally. Mice are placed in a cylinder (diameter: 10 cm; height: 25 cm) filled with 6 cm of water (22-25° C.) for 6 min. The duration of immobility during the last 4 min. of the 6 min. period of the test was scored. A mouse is recorded as immobile when floating motionless or making only those movements necessary to keep its head above water.

The target in experiment [4] is T3, human mGlu2 receptors (Homo sapiens, UniProt Q14416).
T3 construct: expressed in transfected cells; host or cells: AV12 cells, co-expressing rat EAAT1
T3 sequence (Q14416 19-872): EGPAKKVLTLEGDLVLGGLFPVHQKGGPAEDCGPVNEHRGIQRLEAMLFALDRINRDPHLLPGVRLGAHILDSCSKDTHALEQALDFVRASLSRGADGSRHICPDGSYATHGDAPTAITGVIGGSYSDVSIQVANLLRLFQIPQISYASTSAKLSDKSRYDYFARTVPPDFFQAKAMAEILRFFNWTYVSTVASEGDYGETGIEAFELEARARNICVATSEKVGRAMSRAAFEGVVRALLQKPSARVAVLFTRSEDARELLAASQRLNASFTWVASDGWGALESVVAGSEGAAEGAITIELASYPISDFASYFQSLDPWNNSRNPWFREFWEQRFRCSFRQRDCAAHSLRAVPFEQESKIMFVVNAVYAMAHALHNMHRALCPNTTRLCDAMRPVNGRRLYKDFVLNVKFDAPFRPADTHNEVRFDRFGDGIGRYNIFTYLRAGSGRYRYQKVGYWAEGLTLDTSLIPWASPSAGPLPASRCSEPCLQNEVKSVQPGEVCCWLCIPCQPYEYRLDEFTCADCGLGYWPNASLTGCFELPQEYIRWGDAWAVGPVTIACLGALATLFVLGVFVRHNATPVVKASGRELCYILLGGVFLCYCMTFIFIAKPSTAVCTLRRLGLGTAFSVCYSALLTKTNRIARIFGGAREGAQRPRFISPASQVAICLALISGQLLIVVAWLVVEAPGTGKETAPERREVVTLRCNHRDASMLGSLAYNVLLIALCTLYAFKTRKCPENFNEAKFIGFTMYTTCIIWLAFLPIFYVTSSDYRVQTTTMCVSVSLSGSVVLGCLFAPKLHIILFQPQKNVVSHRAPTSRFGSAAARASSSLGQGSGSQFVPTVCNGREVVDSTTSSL
In words: mGlu2 receptor cAMP antagonist assay. It counts as cell-based. Particulars: reversal of DCG IV (EC90) inhibition of forskolin-stimulated cAMP; AV12 cells. As to the method:
mGlu2 and mGlu3 Receptor cAMP Antagonist Assays
Antagonist activity is assayed in recombinant AV12 cells stably expressing human mGlu2 or mGlu3 receptors and the rat glutamate transporter EAAT1 (Excitatory Amino Acid Transporter 1). The cell lines are maintained by culturing in DMEM with high glucose and pyridoxine hydrochloride supplemented with 5% dialyzed fetal bovine serum (FBS), 1 mM sodium pyruvate, 1 mM HEPES and 1 mM L-glutamine; geneticin and hygromycin B are used as selection antibiotics.
Reversal of the inhibition of forskolin-stimulated cAMP production by test compounds is measured using homogeneous time resolved fluorescence technology (HTRF; Cisbio cat #62AM4PEB). The medium is removed and the cells are incubated with 100 μl cAMP stimulation buffer (STIM) for 30 minutes at 37° C. […] Cells are incubated at 37° C. for 20 minutes. To measure the cAMP levels, cAMP-d2 conjugate and anti cAMP-cryptate conjugate in lysis buffer are incubated with the treated cells at room temperature for 1 hour (mGlu2) or 1.5 hour (mGlu3). […] The raw data are converted to cAMP amount (pmole/well) using a cAMP standard curve generated for each experiment. Relative IC50 values are calculated from the top-bottom range of the concentration response curve using a four-parameter logistic curve fitting program (ActivityBase v5.3.1.22).

Experiment [5] has as its target T4, human mGlu1 receptor (Homo sapiens, UniProt Q13255).
T4 construct: expressed in transfected cells; host or cells: AV12 cells, co-expressing rat EAAT1
In words: FLIPR calcium assay for mGlu receptor selectivity, mGlu1 antagonist mode. It is filed as cell-based. Particulars: inhibition of EC90 glutamate response, read-out: mGlu1 % inhib. @12.5 μM.
Excerpt: as §1, §2, §3, §4

For experiment [6], the target named is T5, human mGlu8 receptor (Homo sapiens, UniProt O00222).
T5 construct: expressed in transfected cells; host or cells: AV12 cells, co-expressing rat EAAT1 and Galpha15
T5 sequence (O00222 34-908): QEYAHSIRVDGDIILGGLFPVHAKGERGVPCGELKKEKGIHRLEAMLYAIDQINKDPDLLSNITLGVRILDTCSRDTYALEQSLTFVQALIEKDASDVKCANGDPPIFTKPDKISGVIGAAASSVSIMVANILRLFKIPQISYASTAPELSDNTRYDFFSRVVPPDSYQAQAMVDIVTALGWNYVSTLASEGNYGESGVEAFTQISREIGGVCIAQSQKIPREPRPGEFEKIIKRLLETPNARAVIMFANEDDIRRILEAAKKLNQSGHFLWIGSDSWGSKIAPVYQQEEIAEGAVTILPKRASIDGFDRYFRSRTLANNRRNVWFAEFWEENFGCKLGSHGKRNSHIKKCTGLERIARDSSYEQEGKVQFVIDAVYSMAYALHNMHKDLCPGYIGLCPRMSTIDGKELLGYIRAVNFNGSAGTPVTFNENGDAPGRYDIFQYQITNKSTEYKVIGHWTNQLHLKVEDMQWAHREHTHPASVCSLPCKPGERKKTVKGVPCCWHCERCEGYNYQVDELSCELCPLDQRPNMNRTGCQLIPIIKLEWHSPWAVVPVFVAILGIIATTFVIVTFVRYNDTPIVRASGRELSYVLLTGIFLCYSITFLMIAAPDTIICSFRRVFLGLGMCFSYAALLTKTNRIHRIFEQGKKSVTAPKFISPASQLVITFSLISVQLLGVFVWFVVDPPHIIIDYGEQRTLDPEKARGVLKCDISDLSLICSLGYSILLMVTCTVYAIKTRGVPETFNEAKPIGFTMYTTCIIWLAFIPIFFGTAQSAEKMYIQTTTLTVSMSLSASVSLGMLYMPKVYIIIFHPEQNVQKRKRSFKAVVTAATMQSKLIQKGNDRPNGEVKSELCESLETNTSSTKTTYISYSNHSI
Kind of experiment: FLIPR calcium assay for mGlu receptor selectivity, mGlu8 antagonist mode. It is filed as cell-based. Particulars: for inhibition at 12.5 µM: inhibition of EC90 glutamate response, read-out: mGlu8 % inhib. @12.5 μM; for IC50: printed in brackets below the % inhib. value.
Excerpt: as §1, §2, §3, §4

T4 sequence (Q13255 19-1194): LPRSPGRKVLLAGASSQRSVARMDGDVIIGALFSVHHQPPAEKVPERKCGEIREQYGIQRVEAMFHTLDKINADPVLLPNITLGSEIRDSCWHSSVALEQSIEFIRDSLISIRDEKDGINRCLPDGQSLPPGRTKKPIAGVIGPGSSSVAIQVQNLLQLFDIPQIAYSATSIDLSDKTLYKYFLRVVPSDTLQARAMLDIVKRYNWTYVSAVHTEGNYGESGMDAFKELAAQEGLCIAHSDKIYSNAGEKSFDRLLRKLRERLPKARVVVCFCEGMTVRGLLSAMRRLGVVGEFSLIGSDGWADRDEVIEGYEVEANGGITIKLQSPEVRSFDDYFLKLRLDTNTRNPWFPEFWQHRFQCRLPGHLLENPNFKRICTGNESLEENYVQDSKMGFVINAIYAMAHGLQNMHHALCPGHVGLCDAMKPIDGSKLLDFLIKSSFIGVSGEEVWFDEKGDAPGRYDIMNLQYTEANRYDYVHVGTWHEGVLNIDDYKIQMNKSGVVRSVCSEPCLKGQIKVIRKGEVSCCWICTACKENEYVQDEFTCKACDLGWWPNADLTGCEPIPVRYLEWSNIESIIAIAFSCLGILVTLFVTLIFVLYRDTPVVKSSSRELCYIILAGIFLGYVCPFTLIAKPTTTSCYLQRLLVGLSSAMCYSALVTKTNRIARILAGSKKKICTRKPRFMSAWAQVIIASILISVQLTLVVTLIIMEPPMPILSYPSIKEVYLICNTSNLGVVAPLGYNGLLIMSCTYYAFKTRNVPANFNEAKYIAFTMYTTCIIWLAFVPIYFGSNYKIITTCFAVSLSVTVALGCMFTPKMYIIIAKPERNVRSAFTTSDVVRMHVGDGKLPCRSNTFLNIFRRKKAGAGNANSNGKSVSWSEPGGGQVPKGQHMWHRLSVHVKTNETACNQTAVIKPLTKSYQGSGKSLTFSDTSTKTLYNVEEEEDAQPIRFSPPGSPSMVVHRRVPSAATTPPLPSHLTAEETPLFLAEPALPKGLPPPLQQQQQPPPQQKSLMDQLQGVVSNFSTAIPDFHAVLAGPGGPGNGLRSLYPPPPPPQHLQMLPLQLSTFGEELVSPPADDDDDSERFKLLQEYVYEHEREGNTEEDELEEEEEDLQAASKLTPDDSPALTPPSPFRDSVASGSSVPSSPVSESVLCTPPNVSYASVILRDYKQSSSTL
T1 sequence (O15303 25-877): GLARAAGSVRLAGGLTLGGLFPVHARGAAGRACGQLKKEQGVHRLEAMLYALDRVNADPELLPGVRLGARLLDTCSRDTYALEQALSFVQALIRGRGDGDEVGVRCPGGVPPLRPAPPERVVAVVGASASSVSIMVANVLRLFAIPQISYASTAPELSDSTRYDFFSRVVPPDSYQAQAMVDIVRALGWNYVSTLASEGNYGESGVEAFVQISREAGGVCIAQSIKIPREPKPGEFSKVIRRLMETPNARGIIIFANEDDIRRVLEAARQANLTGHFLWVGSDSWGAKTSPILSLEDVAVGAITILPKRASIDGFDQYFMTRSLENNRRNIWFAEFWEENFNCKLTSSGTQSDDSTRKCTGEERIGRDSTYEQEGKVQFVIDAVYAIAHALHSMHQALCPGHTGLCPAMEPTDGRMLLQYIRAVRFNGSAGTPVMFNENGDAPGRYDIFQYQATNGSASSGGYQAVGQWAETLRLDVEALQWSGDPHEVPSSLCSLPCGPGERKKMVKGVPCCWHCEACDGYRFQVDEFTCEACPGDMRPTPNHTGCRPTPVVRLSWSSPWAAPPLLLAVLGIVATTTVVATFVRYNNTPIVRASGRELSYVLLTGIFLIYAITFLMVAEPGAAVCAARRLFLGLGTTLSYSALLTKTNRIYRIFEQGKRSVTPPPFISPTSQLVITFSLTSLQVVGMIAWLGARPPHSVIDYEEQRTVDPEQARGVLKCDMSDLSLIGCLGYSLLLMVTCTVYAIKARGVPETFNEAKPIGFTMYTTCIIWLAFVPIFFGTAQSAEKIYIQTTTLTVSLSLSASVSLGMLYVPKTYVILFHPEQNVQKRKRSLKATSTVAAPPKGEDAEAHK

Regarding `N[C@]1(C(=O)O)[C@@H]2[C@@H](C(=O)O)[C@@H]2[C@H](O)[C@H]1OCc1ccc(Cl)c(Cl)c1` [Example 1, (1S,2R,3S,4S,5R,6R)-2-Amino-3-[(3,4-dichlorobenzyl)oxy]-4-hydroxybicyclo[3.1.0]hexane-2,6-dicarboxylic acid], the IC50 (in general, the point on the concentration scale where inhibition reaches its midpoint) in experiment [1] stood at 3300 nM; in experiment [4], 43.3 ± 5.8 nM; in experiment [6] it was 1900 nM. Besides, the figures for the inhibition at 12.5 µM in experiment [2], in experiment [5] and in experiment [6] were 28.5%, -0.47% and 78.4%, respectively. The ED60 in experiment [3] turned out to be 1 mg/kg. Moreover, the “Maximal Decrease (1 − compound/control) * 100%” value in experiment [3] was determined as 59%.
As for `N[C@]1(C(=O)O)[C@@H]2[C@@H](C(=O)O)[C@@H]2[C@H](Sc2nc[nH]n2)[C@H]1OCc1ccc(Cl)c(Cl)c1` [Example 2, (1R,2R,3S,4S,5R,6R)-2-Amino-3-[(3,4-dichlorobenzyl)oxy]-4-(1H-1,2,4-triazol-3-ylsulfanyl)bicyclo[3.1.0]hexane-2,6-dicarboxylic acid], the values for the IC50 in experiment [1], in experiment [4] and in experiment [6] were 1290 ± 162 nM, 13.1 ± 1.9 nM and 507 nM, respectively. Moreover, the inhibition at 12.5 µM in experiment [2] was 69%; in experiment [5] it was 8.6%; in experiment [6], 92.3%. The same molecule came in with an ED60 in experiment [3] of 2.08 mg/kg. Besides, the “Maximal Decrease (1 − compound/control) * 100%” value in experiment [3] turned out to be 62%.
As to `CC(=O)N[C@H]1[C@H]2[C@H](C(=O)O)[C@H]2[C@](N)(C(=O)O)[C@@H]1OCc1ccc(Cl)c(Cl)c1` [Example 4, (1S,2R,3R,4S,5R,6S)-4-(Acetylamino)-2-amino-3-[(3,4-dichlorobenzyl)oxy]bicyclo[3.1.0]hexane-2,6-dicarboxylic acid], the IC50 in experiment [1] is 2640 ± 424 nM; in experiment [4], 25.5 ± 2.8 nM. Moreover, the figures for the inhibition at 12.5 µM in experiment [2], in experiment [5] and in experiment [6] were 13.3%, -2% and 23.4%, respectively. The molecule also displayed an ED60 in experiment [3] of 9.5 mg/kg. For the same molecule, the “Maximal Decrease (1 − compound/control) * 100%” value in experiment [3] stood at 38%.
Consider `Cl.Cn1cnc(S[C@H]2[C@H]3[C@H](C(=O)O)[C@H]3[C@](N)(C(=O)O)[C@@H]2OCc2ccc(Cl)c(Cl)c2)n1` [Example 7, (1R,2R,3S,4S,5R,6R)-2-Amino-3-[(3,4-dichlorophenyl)methoxy]-4-[(1-methyl-1,2,4-triazol-3-yl)sulfanyl]bicyclo[3.1.0]hexane-2,6-dicarboxylic acid hydrochloride.], for which the figures for the half-maximal inhibitory concentration (IC50) in experiment [1] and in experiment [4] were 3690 nM and 52 ± 17.9 nM, respectively. Moreover, the inhibition at 12.5 µM was 32.2% in experiment [2], 11.2% in experiment [5] and 46.7% in experiment [6]. The same molecule had an ED60 in experiment [3] of over 10 mg/kg. The “Maximal Decrease (1 − compound/control) * 100%” value in experiment [3] is reported as 18%.
Consider `Cl.N[C@]1(C(=O)O)[C@@H]2[C@@H](C(=O)O)[C@@H]2[C@H](NC(=O)CO)[C@H]1OCc1ccc(Cl)c(Cl)c1` [Example 9, (1S,2R,3R,4S,5R,6S)-2-Amino-3-[(3,4-dichlorobenzyl)oxy]-4-[(hydroxyacetyl)amino]bicyclo[3.1.0]hexane-2,6-dicarboxylic acid hydrochloride], for which the values for the IC50 in experiment [1] and in experiment [4] were 2820 nM and 22 ± 3 nM, respectively. For the same molecule, the inhibition at 12.5 µM in experiment [2] is 46.9%; in experiment [5], 5%; in experiment [6] it was 13.3%. For the same molecule, the ED60 in experiment [3] was 9.68 mg/kg. The “Maximal Decrease (1 − compound/control) * 100%” value in experiment [3] came out at 41%.
